In patent publication US20140087369A1, “INFECTION DETECTION METHODS AND SYSTEMS AND RELATED COMPOUNDS AND COMPOSITIONS” (priority 2010, published 2014):

Test system: viral neuraminidase
Assay type: biochemical, influenza virus
Settings: pH 5.5

Compound	enzymatic cleavage of the substrate and release of odorant (decrease of substrate signal, appearance of cleavage product signals)
CC(=O)NC1C(O)CC(OCC2(C)CC2CC2CC3CC3(C)C2(C)C)(C(=O)O)OC1CC(O)CO [javanol, Sodium ([(1R,2S)-1-methyl-2-[[(1R,3S,5S)-1,2,2-trimethyl-3-bicyclo[3.1.0]hexanyl]methyl]cyclopropyl]methyl-5-acetamido-3,5-dideoxy-α-D-glycero-D-galacto-2-nonulopyranoside)onate]	substrate is still present
Sodium (4-(4-hydroxy-3-methoxyphenyl)butan-2-one-5-acetamido-3,5-dideoxy-α-D-glycero-D-galacto-2-nonulopyranoside)onate [zingerone]	significant loss of peak at 508.3 amu
